From PubChem BioAssay (NCI)
Several values for one entry are separate records, joined by “and”; a condition that tells them apart may be missing. Equal entries are not always repeated.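 Each compound was tested at five concentrations against cells in 96-well plates for 48 hours. Abbreviation: GI50, concentration required for 50% inhibition of growth. TGI marks complete inhibition of growth.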

Key:
Assay in all cases: NCI-60 cell line screen, 48 h
[1] = test system: HCC-2998 colon
[2] = test system: SR leukemia
[3] = test system: KM20L2 colon
[4] = test system: SNB-78 CNS
[5] = test system: RPMI-8226 leukemia
[6] = test system: DMS 114 small cell lung
[7] = test system: M19-MEL melanoma
[8] = test system: CAKI-1 renal
[9] = test system: T-47D breast
[10] = test system: NCI-H23 lung

Compound | GI50 [1] [µM] | TGI [1] | GI50 [2] [µM] | TGI [2] | GI50 [3] [µM] | TGI [3] [µM] | GI50 [4] [µM] | TGI [4] [µM] | GI50 [5] [µM] | TGI [5] [µM] | TGI [6] [µM] | TGI [7] [µM] | GI50 [8] [µM] | TGI [8] [µM] | GI50 [9] [µM] | TGI [9] [µM] | TGI [10] [µM]
Cn1cnc(SC2=CC(=O)C=C3S[C@H]4C[C@@]23c2c(c(O)c3c5c2=NCCC=5C=N3)N4)c1CC(N)C(=O)O (some centres undefined) | 13.6 | 26.6 µM | 20.9 | 98.9 µM | 2.48 | 11.6 | 15.3 | 38.4 | 16.3 | > 100 | 4.31 | 3.89 | 18.7 | 33.3 | 20.2 | 38.3 | 15.2
Cc1ccc(NC(=O)CCc2nnc3s/c(=C\C=C\c4ccccc4)c(=O)n23)cc1 |  | > 100 µM |  | 65.6 µM |  | > 100 |  | > 100 |  | > 82.1 | > 100 | > 100 |  | > 100 |  | > 31.6 | > 100
CN1C(c2ccccc2)CC(=NO)CC1c1ccccc1 (centres undefined) | 30.5 | > 100 µM and 81.6 µM | 24.9 | > 100 µM and 80.1 µM |  | > 100 |  | > 100 | 33 | 55.5 | > 100 | > 100 |  | > 100 | 46.4 |  | > 100
COc1ccc2c(c1)c1ccc3c(c1n2C)C(=O)C=CC3=O |  | 34.6 µM |  | 5.59 µM |  | > 57.3 |  | 45.5 |  | 7.35 | 47.4 | > 58.9 |  | 18.6 |  | 6.25 | 32.2
CCCCSC1CCSc2c1ccc1ccccc21 (centres undefined) |  | > 100 µM |  | > 100 µM |  | > 100 |  | > 100 |  | > 100 | > 100 | > 100 |  | > 100 |  |  | > 100
